Ends that are not written are not given here.
Experiments:
HIV-1IIIB = experiment: HIV-1 antiviral assay in CEM-SS cells (MTS readout); type: cell-based; settings: positive controls
RAW 264.7 cells = experiment: Phagocytosis assay (Fluorescein-labeled Escherichia coli, flow cytometry); type: cell-based, Mouse; settings: 10 micrograms per ml, combination peptide 1:peptide 2 1.10 mole:0.90 mole
Human A549 cells = experiment: Apoptosis prevention assay (C2 ceramide, Annexin-5); type: cell-based; settings: 10 micrograms per ml, 30 min pretreatment, then C2 ceramide
[1] = tested on: Tumor Necrosis Factor-α (TNF-α); experiment: Th1/Th2 cytokine profiling assay, TNF-α; type: cell-based; settings: 10 micrograms per ml; Ovalbumin-restimulated spleen cells of immunized Balb/c mice; 72 hours
Source text: (§1) The Balb/c mice (originated in 1923, it is a popular strain and is used in many different research disciplines. Also classified as an inbred from the production of 20 or more successive brother-sister matings, the Balb/c mouse is albino and small in size) were immunized on Days 1, 15, and 29 with Ovalbumin (Ovalbumin is the main protein found in egg white, commonly used to stimulate an immunological reaction in test animals) in PBS (5 micrograms/injection). On day 50, spleens of the mice were harvested (3 weeks after last boost with Ovalbumin). […] Thereafter, additional Ovalbumin was added to the cells at 10 micrograms/ml for in vitro restimulation of the cells. 72 hours later, cell supernatants were harvested and assayed using the Becton Dickinson Mouse Th1/Th2 Cytokine CBA Kit.

Interferon-γ (IFN-γ) = experiment: Th1/Th2 cytokine profiling assay, IFN-γ; type: cell-based; settings: 10 micrograms per ml; Ovalbumin-restimulated spleen cells of immunized Balb/c mice; 72 hours
Source text: as §1

Interleukin-2 (IL-2) = experiment: Th1/Th2 cytokine profiling assay, IL-2; type: cell-based; settings: 10 micrograms per ml; Ovalbumin-restimulated spleen cells of immunized Balb/c mice; 72 hours
Source text: (§2) The Balb/c mice (originated in 1923, it is a popular strain and is used in many different research disciplines. Also classified as an inbred from the production of 20 or more successive brother-sister matings, the Balb/c mouse is albino and small in size) were immunized on Days 1, 15, and 29 with Ovalbumin (Ovalbumin is the main protein found in egg white, commonly used to stimulate an immunological reaction in test animals) in PBS (5 micrograms/injection). On day 50, spleens of the mice were harvested (3 weeks after last boost with Ovalbumin). […] Thereafter, additional Ovalbumin was added to the cells at 10 micrograms/ml for in vitro restimulation of the cells. 72 hours later, cell supernatants were harvested and assayed using the Becton Dickinson Mouse Th1/Th2 Cytokine CBA Kit. This kit can be used to measure Interleukin-2 (IL-2), Interleukin-4 (IL-4), Interleukin-5 (IL-5), Interferon-γ (IFN-γ), and Tumor Necrosis Factor-α (TNF-α) protein levels in a single sample. The kit performance has been optimized for analysis of physiologically relevant concentrations (μg/ml levels) of specific cytokine proteins in tissue culture supernatants and serum samples.

Interleukin-4 (IL-4) = experiment: Th1/Th2 cytokine profiling assay, IL-4; type: cell-based; settings: 10 micrograms per ml; Ovalbumin-restimulated spleen cells of immunized Balb/c mice; 72 hours
Source text: as §2

Interleukin-5 (IL-5) = experiment: Th1/Th2 cytokine profiling assay, IL-5; type: cell-based; settings: 10 micrograms per ml; Ovalbumin-restimulated spleen cells of immunized Balb/c mice; 72 hours
Source text: as §2

Molecule: Cc1cn([C@H]2C[C@H](N=[N+]=[N-])[C@@H](CO)O2)c(=O)[nH]c1=O [AZT]
- antiviral activity of positive control compounds (HIV-1) (HIV-1IIIB): expected levels of antiviral activity

Molecule: CC(C)(C)NC(=O)[C@@H]1CN(Cc2cccnc2)CCN1C[C@@H](O)C[C@@H](Cc1ccccc1)C(=O)N[C@H]1c2ccccc2C[C@H]1O [indinavir]
- antiviral activity of positive control compounds (HIV-1) (HIV-1IIIB): expected levels of antiviral activity

Molecule: CCNC(=O)[C@@H]1CCCN1C(=O)[C@H](CCCNC(=N)N)NC(=O)[C@H](CC(C)C)NC(=O)[C@@H](COC(C)(C)C)NC(=O)[C@H](Cc1ccc(O)cc1)NC(=O)[C@H](CO)NC(=O)[C@H](Cc1c[nH]c2ccccc12)NC(=O)[C@H](Cc1cnc[nH]1)NC(=O)[C@@H]1CCC(=O)N1 [peptide 1, Pyr-His-Trp-Ser-Tyr-D-Ser(tBu)-Leu-Arg-Pro-NHEt]
- increase on the phagocytic activity of murine macrophages (RAW 264.7 cells): 31.4%
- prevention (reduction) of ceramide-induced apoptosis on human lung cells (Human A549 cells): 26.4%
- TNF-a spleen cells; TH1 response (% of control) [1]: 121.2 % of control
- IFNγ spleen cells; TH1 response (% of control) (Interferon-γ (IFN-γ)): 76.6 % of control
- IL-2 spleen cells (% of control) (Interleukin-2 (IL-2)): 175.3 % of control
- IL-4 spleen cells; TH2 response (% of control) (Interleukin-4 (IL-4)): 131.6 % of control
- IL-5 spleen cells; TH2 response (% of control) (Interleukin-5 (IL-5)): 80.4 % of control

Molecule: Tyr-Gly-Gly-Phe-Leu-Arg-Arg-OH (YGGFLRR-OH) [peptide 2]
- increase on the phagocytic activity of murine macrophages (RAW 264.7 cells): 25.7%
- prevention (reduction) of ceramide-induced apoptosis on human lung cells (Human A549 cells): 11.5%
- TNF-a spleen cells; TH1 response (% of control) [1]: 90.3 % of control
- IFNγ spleen cells; TH1 response (% of control) (Interferon-γ (IFN-γ)): 126.8 % of control
- IL-2 spleen cells (% of control) (Interleukin-2 (IL-2)): 93.8 % of control
- IL-4 spleen cells; TH2 response (% of control) (Interleukin-4 (IL-4)): 81.2 % of control
- IL-5 spleen cells; TH2 response (% of control) (Interleukin-5 (IL-5)): 66.0 % of control

— patent US20100204145A1, “USE OF A PEPTIDE AS A THERAPEUTIC AGENT” (priority 2007, published 2010)
